Laboratory results: patent US20260207620A1, “SOLID DISPERSION OF COMPOUND HAVING P2X4 RECEPTOR ANTAGONISTIC ACTION” (NIPPON CHEMIPHAR CO., LTD., priority 2023, published 2026)

What was measured:
[1] = PK test of compound F2 and its solid dispersion, oral, fasted male Wistar rats; assay type: in vivo; conditions: Wistar (Crlj:WI), rat, compound F2 in plasma, 10 mg/kg (as compound F2) p.o., n=3
Protocol: Fasted male rats (8 weeks old, Wistar (Crlj:WI), Charles River Laboratories Japan, Inc.) were orally administered a crystalline form of the compound F2 suspended in a 1% methylcellulose aqueous solution or a solid dispersion comprising the compound F2 suspended in water for injection. The dosage of the compound F2 in each group was 10 mg/kg (n=3 in each group). Blood samples were collected in a time-dependent manner at 0.5, 1, 2, 4, 6, 8, and 24 hours after oral administration. The concentration of the compound F2 in the obtained plasma was measured by LC-MS/MS (MS/MS: API4000, SCIEX, LC: LC-20AD series, Shimadzu Corporation). Tmax, Cmax, and AUClast were calculated from the plasma concentration transition (Table 5).

solubility in water = assay type: physicochemical
[2] = PK test, solid dispersions E and B of compound F48, single oral dose, fasted male Wistar rats; assay type: in vivo; conditions: Wistar (Crlj:WI), rat, compound F48 in plasma, 10 mg/kg (as compound F48) p.o. once, n=3
Protocol: Solid dispersions E and B were prepared using a rotary evaporator according to the following method. The compound F48 was dissolved in THF to result in 2.5 mg/mL. By the same procedure as above, each polymer was prepared to result in 25 mg/mL. Next, the compound F48 solution was added to the polymer solution with stirring such that the weight ratio between the compound F48 and the carrier was 1:25. The resulting mixture was transferred to a recovery flask, and the organic solvent was then removed using a rotary evaporator (Yamato Scientific Co., Ltd., distillation apparatus). The recovery flask was transferred to a desiccator and dried under reduced pressure using a vacuum pump for approximately 16 hours, thereby obtaining solid dispersions E and B. […]
Blood samples were collected in a time-dependent manner before oral administration and at 0.5, 1, 3, 5, 8, and 24 hours after oral administration. The concentration of the compound F48 in the obtained plasma was measured by HPLC (Hitachi High-Technologies Corporation). The time to reach the maximum plasma concentration (Tmax), the maximum plasma concentration (Cmax), and the area under the plasma concentration-time curve (AUClast) were calculated from the plasma concentration transition (Table 2).

Row | Structure (SMILES) | AUC(0-t) [1] | Cmax [1] | Tmax [1] | solubility in water (solubility in water) | Cmax [2]
1 | O=C1CC(=O)N(c2ccc(NC(=O)c3ccccc3C(F)(F)F)cc2)c2ccc3ccccc3c2N1 [Compound F2, 5-[4-[2-(trifluoromethyl)benzoyl]aminophenyl]-1H-naphtho [1,2-b][1,4]diazepine-2,4 (3H,5H)-dione] | 5710 ± 520 ng·h/mL | 386 ± 56 ng/mL | 4 h | poorly soluble in water | –
2 | O=C1CC(=O)N(c2ccc(NC(=O)c3ccccc3I)cc2)c2ccc3ccccc3c2N1 [Compound F48, 5-[4-(2-iodobenzoylamino)phenyl]-1H-naphtho [1,2-b][1,4]diazepine-2,4 (3H,5H)-dione] | – | – | – | poorly soluble in water | –
3 | O=C1CC(=O)N(c2ccc(NC(=O)c3ccccc3I)cc2)c2ccc3ccccc3c2N1 [Control, 5-[4-(2-iodobenzoylamino)phenyl]-1H-naphtho [1,2-b][1,4]diazepine-2,4 (3H,5H)-dione] | – | – | – | – | < 25 ng/mL
4 | CCc1ccccc1C(=O)Nc1ccc(N2C(=O)CC(=O)Nc3c2ccc2ccccc32)cc1 [Compound F57, 5-[4-[(2-ethylbenzoyl)amino]phenyl]-1H-naphtho [1,2-b][1,4]diazepine-2,4 (3H,5H)-dione] | – | – | – | poorly soluble in water | –
